These results are taken from paper PMC8151276, “An Integrated Approach toward NanoBRET Tracers for Analysis of GPCR Ligand Engagement” (Molecules, 2021).

The test concerns the target T1, CHRM4 (Homo sapiens, UniProt P08173).
T1 construct: purchased Promega (in-house HiBiT-GPCR construct library, NanoBRET)
T1 sequence (P08173 1-479): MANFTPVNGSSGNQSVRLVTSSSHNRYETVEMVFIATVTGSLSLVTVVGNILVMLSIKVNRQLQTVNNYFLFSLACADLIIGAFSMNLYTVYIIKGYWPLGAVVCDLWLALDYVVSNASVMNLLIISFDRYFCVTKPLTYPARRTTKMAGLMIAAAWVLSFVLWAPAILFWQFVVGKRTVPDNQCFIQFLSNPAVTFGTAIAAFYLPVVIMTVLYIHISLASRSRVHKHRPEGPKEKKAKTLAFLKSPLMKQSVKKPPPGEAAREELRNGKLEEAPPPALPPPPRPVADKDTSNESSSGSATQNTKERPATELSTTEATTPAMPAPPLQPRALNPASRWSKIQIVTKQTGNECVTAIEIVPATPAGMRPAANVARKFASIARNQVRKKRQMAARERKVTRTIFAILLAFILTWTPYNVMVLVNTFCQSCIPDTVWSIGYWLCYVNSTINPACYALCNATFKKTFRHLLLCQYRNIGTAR
In words: NanoBRET screen HiBiT-CHRM4 in HEK293. In kind it is binding. Here is the method:
Each tracer candidate was screened across the entire library of HiBiT-GPCR constructs using NanoBRET as the detection modality. As depicted in Figure 4A, the specificity of interactions was evaluated through decrease in BRET due to competitive displacement of a bound tracer by excess parental compound. Each tracer was analyzed for binding to each HiBiT-GPCR fusion in the absence and in the presence of competing parental compound. Briefly, HEK293 cells were transfected with HiBiT-GPCR constructs diluted into promoterless DNA to reduce expression and maximize translocation to the cell surface. Each tracer candidate was then screened at concentrations of 1 μM and 0.1 μM across cells expressing these fusions. Cells were treated for 1.5 h with tracer either alone or in the presence of 20 μM competing parental compound (i.e., control). BRET was measured upon addition of purified LgBiT and subsequent complementation with HiBiT genetically fused to a GPCR. The specificity of interactions was assessed through a decrease in BRET signal due to competitive displacement of the bound tracer. To further gauge the robustness of these interactions, the fold response over the control (i.e., BRETtracer/BRETcontrol) was calculated. We chose a 1.5-fold response, which translates to ≥7-fold signal over noise as the minimal threshold required to score an interaction as positive.
HiBiT-GPCR DNA constructs were diluted in 10 mM Tris pH 8 to a final concentration of 0.01 μg/μL, arrayed in 96-well plates and stored at −20 °C. For transfection, HEK293 cells were suspended in Opti-MEM (without phenol red) supplemented with 2% fetal bovine serum (Seradigm) and 100 units/mL penicillin–streptomycin (Gibco) at a final concentration of 220,000 cells/mL and dispensed into white 96-well plates at 90 μL/well. Subsequent transfections and screens were carried using an Agilent Bravo Automated Liquid Handling Platform. First, the 96-well HiBiT DNA arrays were diluted 25-fold in Opti-MEM (without serum or phenol red) to a final concentration of 0.0004 μg/μL and 20 μL of the diluted DNAs were transferred into new 96-well plates. Next, promoterless carrier DNA (1 μg/μL) was diluted 25-fold (0.04 μg/μL) and then dispensed into the diluted arrays at 20 μL/well. Following brief mixing, Viafect transfection reagent (Promega) diluted 16-fold into Opti-MEM was dispensed into the plates at 40 μL/well. After mixing by pipetting, plates were incubated for 10 min on the pipetting station deck. The DNA-transfection reagent complexes were then added to plates containing cells. To facilitate the screen, 10 μL of DNA-transfection reagent complexes were added in duplicates to the top 4 and bottom 4 rows, resulting in two identical 48-well arrays per plate. Plates with transfected cells were incubated for 18–20 h at 37 °C/5% CO2. A screen of each tracer across the entire library using two different concentrations requires duplicate plates of transfected cells. Depending on the number of tracers being screened, transfections can be scaled up using the same ratios. The next day, for each tracer, four 20× screening solutions in tracer dilution buffer (Promega) were prepared: two duplicates at final concentration of 20 μM and two duplicates at a final concentration of 2 μM. […] The four resulting solutions were diluted 4-fold in Opti-MEM without serum or phenol red to generate 5× solutions (5 µM and 0.5 µM tracer +/− 100 μM competing compound). To screen the library, a BioTek MultiFlo FX liquid dispenser was used to dispense 22.5 µL of tracer solution to the top 4 rows and 22.5 µL tracer + competing compound solution to the 4 bottom rows. Plates were briefly mixed on an orbital shaker and incubated for 1.5 h at room temperature. […] Plates were briefly mixed on an orbital shaker and incubated for 15 min to allow complementation.
On the technique in general: In BRET a luciferase serves as donor, and the signal depends on an acceptor being close.

As for `O=C(CCOCCOCCOCCOCCNC(=O)CCc1ccc2n1[B-](F)(F)[N+]1=C(c3ccc[nH]3)C=CC1=C2)NCCCN1CCN(C2=Nc3ccccc3Oc3ccc(Cl)cc32)CC1` [Loxapine-a-2-NB590], the “NanoBRET Fold Response” value is, setting by setting: (CHRM4, tracer 0.1μM) 1.11; (CHRM4, tracer 1μM) 1.18.
For the compound `CCCn1c(=O)c2[nH]c(-c3ccc(OCC(=O)NCCNC(=O)CCOCCNC(=O)c4ccc(CNC(=O)CCc5ccc6n5[B-](F)(F)[N+]5=C(c7ccc[nH]7)C=CC5=C6)cc4)cc3)nc2n(CCC)c1=O` [XAC-3-NB590], the “NanoBRET Fold Response” value was 0.78 (CHRM4, tracer 0.1μM) and 1.10 (CHRM4, tracer 1μM).
With `CN(C)CCC=C1c2ccccc2CCc2ccc(C(=O)NCCNC(=O)CCOCCOCCOCCOCCNC(=O)CCc3ccc4n3[B-](F)(F)[N+]3=C(c5ccc[nH]5)C=CC3=C4)cc21` [Amitriptyline-a-2-NB590], the “NanoBRET Fold Response” value (tracer at 1μM) is given as 1.45.
As to `COc1ccccc1N1CCN(CCCCN2C(=O)c3ccc(CNC(=O)CCOCCOCCOCCOCCNC(=O)CCc4ccc5n4[B-](F)(F)[N+]4=C(c6ccc[nH]6)C=CC4=C5)cc3C2=O)CC1` [NAN-190-2-NB590], the “NanoBRET Fold Response” value turned out to be 1.18 (CHRM4, tracer 0.1μM) and 1.17 (CHRM4, tracer 1μM).
Consider `O=C(CCc1ccc2n1[B-](F)(F)[N+]1=C(c3ccc[nH]3)C=CC1=C2)NCc1ccc(C(=O)NCCOCCOCCNCC(O)COc2cccc3ccccc23)cc1` (stereo not shown) [Propranolol-3-NB590], for which the “NanoBRET Fold Response” value (CHRM4, 0.1μM) came out at 0.96 and the “NanoBRET Fold Response” value (CHRM4, 1μM) came to 1.05.
`COc1ccccc1N1CCN(CCCCN2C(=O)c3ccc(CNC(=O)CCOCCNC(=O)c4ccc(CNC(=O)CCc5ccc6n5[B-](F)(F)[N+]5=C(c7ccc[nH]7)C=CC5=C6)cc4)cc3C2=O)CC1` [NAN-190-3-NB590]: the “NanoBRET Fold Response” value is recorded as 1.30 (CHRM4, tracer 0.1μM) and 0.66 (CHRM4, tracer 1μM).
As for `O=C(CCc1ccc2n1[B-](F)(F)[N+]1=C(c3ccc[nH]3)C=CC1=C2)NCc1ccc(C(=O)NCCOCCC(=O)N[C@@H]2CC[C@@]3(O)[C@H]4Cc5ccc(O)c6c5[C@@]3(CCN4CC3CC3)[C@H]2O6)cc1` [Naltrexone-3-NB590], the “NanoBRET Fold Response” value reads like this: (CHRM4, tracer 0.1μM) 0.66; (CHRM4, tracer 1μM) 0.79.
Consider `CCOC(=O)c1cc(C#N)c(N2CCC(C(=O)NS(=O)(=O)Cc3ccccc3/C=C/C(=O)NCCNC(=O)CCc3ccc4n3[B-](F)(F)[N+]3=C(c5ccc[nH]5)C=CC3=C4)CC2)nc1C` [AZD1283-1-NB590], for which the “NanoBRET Fold Response” value is, setting by setting: (CHRM4, 0.1μM) 0.97; (CHRM4, 1μM) 1.06.
Regarding `COc1ccc2[nH]c(-c3ccc(CNC(=O)CCOCCOCCOCCOCCNC(=O)CCc4ccc5n4[B-](F)(F)[N+]4=C(c6ccc[nH]6)C=CC4=C5)cc3)c(CCNC(C)=O)c2n1` [AzomelatoninICO9-2-NB590], the “NanoBRET Fold Response” value reads like this: (0.1μM tracer) 0.77; (1μM tracer) 0.98.
As to `CC(C)N(CC[C@H](c1ccccc1)c1cc(CCNC(=O)CCOCCOCCOCCOCCNC(=O)CCc2ccc3n2[B-](F)(F)[N+]2=C(c4ccc[nH]4)C=CC2=C3)ccc1O)C(C)C` [Tolterodine-2-NB590], the “NanoBRET Fold Response” value was 2.75 (CHRM4, tracer 0.1μM) and 1.53 (CHRM4, tracer 1μM).
Turning to `CN1CCN(C2=Nc3cc(Cl)ccc3N(CC(=O)NCCOCCOCCOCCOCCNC(=O)CCc3ccc4n3[B-](F)(F)[N+]3=C(c5ccc[nH]5)C=CC3=C4)c3ccccc32)CC1` [Clozapine-c-2-NB590], the “NanoBRET Fold Response” value is on record as 0.97 (CHRM4, 0.1μM tracer) and 0.98 (CHRM4, 1μM tracer).
On to `N#CN=C(NCCCOc1cccc(CN2CCCCC2)c1)NCCNC(=O)CCOCCOCCOCCOCCNC(=O)CCc1ccc2n1[B-](F)(F)[N+]1=C(c3ccc[nH]3)C=CC1=C2` [Aminopotentidine-2-NB590], for which the “NanoBRET Fold Response” value was 1.17 (CHRM4, tracer 0.1μM) and 1.39 (CHRM4, tracer 1μM).
With `COc1ccc2c(n1)c(CCNC(C)=O)cn2CCNC(=O)CCc1ccc2n1[B-](F)(F)[N+]1=C(c3ccc[nH]3)C=CC1=C2` [Azamelatonin-1-NB590], the “NanoBRET Fold Response” value reads like this: (0.1μM tracer) 0.74; (1μM tracer) 0.98.
For the compound `CN(CCC=C1c2ccccc2CCc2ccccc21)C(=O)CCOCCOCCOCCOCCNC(=O)CCc1ccc2n1[B-](F)(F)[N+]1=C(c3ccc[nH]3)C=CC1=C2` [Amitriptyline-e-2-NB590], the “NanoBRET Fold Response” value (tracer at 1μM) was 1.25.
On to `CC(C)N(CC[C@H](c1ccccc1)c1cc(CCNC(=O)c2ccc(CNC(=O)CCc3ccc4n3[B-](F)(F)[N+]3=C(c5ccc[nH]5)C=CC3=C4)cc2)ccc1O)C(C)C` [Tolterodine-BZ-NB590], for which the “NanoBRET Fold Response” value was determined as 3.69 (CHRM4, tracer 0.1μM) and 2.39 (CHRM4, tracer 1μM).
As for `O=C(CCc1ccc2n1[B-](F)(F)[N+]1=C(c3ccc[nH]3)C=CC1=C2)NCCOCCOCCNC(=O)OCCOCCN1CCN(C2=Nc3ccccc3Sc3ccccc32)CC1` [Quetiapine-a-2-NB590], the “NanoBRET Fold Response” value (CHRM4, tracer 0.1μM) is reported as 1.65 and the “NanoBRET Fold Response” value (CHRM4, tracer 1μM) stood at 2.06.
Turning to `Cc1cc2c(s1)Nc1ccccc1N=C2N1CCN(CCCNC(=O)CCOCCOCCOCCOCCNC(=O)CCc2ccc3n2[B-](F)(F)[N+]2=C(c4ccc[nH]4)C=CC2=C3)CC1` [Olanzapine-a-2-NB590], the “NanoBRET Fold Response” value (CHRM4, tracer 0.1μM) turned out to be 1.07 and the “NanoBRET Fold Response” value (CHRM4, tracer 1μM) turned out to be 1.23.
With `CN(C)CCC=C1c2ccccc2CCc2ccc(C(=O)NCCNC(=O)CCOCCOCCOCCOCCNC(=O)CCc3ccc4n3[B-](F)(F)[N+]3=C(c5ccc[nH]5)C=CC3=C4)cc21` [Amitriptyline-b-2-NB590], the “NanoBRET Fold Response” value runs as follows: (tracer at 0.1μM, listed as amitriptyline-b-2-NB590) 3.79; (tracer at 1μM, listed as amitriptyline-b-2-NB590) 1.75.
In the case of `O=C(CCOCCOCCOCCOCCNC(=O)CCc1ccc2n1[B-](F)(F)[N+]1=C(c3ccc[nH]3)C=CC1=C2)NCCCN1CCN(C2=Nc3cc(Cl)ccc3Nc3ccccc32)CC1` [Clozapine-a-2-NB590], the “NanoBRET Fold Response” value was determined as 1.55 (CHRM4, 0.1μM tracer) and 1.90 (CHRM4, 1μM tracer).
The corresponding values for `CN1CCN(C2=Nc3cc(Cl)ccc3Nc3ccc(CNC(=O)CCOCCOCCOCCOCCNC(=O)CCc4ccc5n4[B-](F)(F)[N+]4=C(c6ccc[nH]6)C=CC4=C5)cc32)CC1` [Clozapine-b-2-NB590] are 1.48 and 2.78.
Consider `Cc1nc2n(c(=O)c1CCN1CCC(c3noc4cc(F)ccc34)CC1)CCCC2OC(=O)NCCOCCOCCOCCOCCNC(=O)CCc1ccc2n1[B-](F)(F)[N+]1=C(c3ccc[nH]3)C=CC1=C2` (stereo not shown) [Risperidone-2-NB590], for which the “NanoBRET Fold Response” value turned out to be 1.10 (CHRM4, tracer 0.1μM) and 1.67 (CHRM4, tracer 1μM).
